According to patent publication US20030149235A1, “Targeting peptides” (priority 2000, published 2003):
Entries after “also recorded” stand apart in the source; their conditions may differ. Non-standard residues stand in square brackets, D forms with d. Residues, ends and D or L forms follow the SMILES beside them. *: point of attachment. Nle = CCCC[C@H](N)C(=O)O; Cbz = O=C(OCc1ccccc1)*

Legend:
HUVEC = test: wtAAVegfp transduction, eGFP fluorimetry; assay type: cell-based, human; details: 250 transduction units/cell, 40 μM LLnL, 4 μM mg132, 5 μg/ml aphidicolin, 10 μM etoposide
Source text: FIG. 6 illustrates the efficiency of AAV-mediated gene transfer to ECs. (A) HUVEC and HeLa cells were mock infected (open bars) or infected with 1000 transduction units/cell of wtAAVegfp (filled bars) and analyzed for eGFP expression by fluorimetry and fluorescence microscopy. (B) ECs were infected with 250 transduction units/cell wtMVegfp in the presence or absence of mg132, LLnL, genistein, hydroxyurea, aphidicolin, etoposide, or camptothecin and harvested for quantification of eGFP by fluorimetry at either 24 h or 96 h postinfection. RFU, relative fluorescent units. *Indicates statistical significance from wtMVegfp alone at the same time point. Representative of three independent experiments;
Cells were plated to reach 80% confluence 24 h later. In each case an accurate cell count was performed immediately before infection. Cells were infected with increasing doses of AAV vectors in the presence or absence of helper adenovirus (Ad) as indicated. For each cell type, Ad co-infection was performed at a dose that mediated 70% transduction, based on prior infection efficiency experiments performed on each cell type using a LacZ-expressing Ad, RAd35. At the required time point, cells were washed and lysed in 0.2% Triton X-100 in PBS and stored at −20° C. For dissection of AAV transduction of EC, cells were incubated with AAV in the absence or presence of 40 μM LLnL, 4 μM mg132, 50 μM genistein, 40 mM hydroxyurea, 5 μg/ml aphidicolin, 10 μM etoposide, 0.1 μM camptothecin or 150 nM bafilomycin A2.
Cells were infected as indicated above in the absence or presence of 1 IU heparin/[…] genomic particles and analyzed for gene expression 72 h later. In addition a column assay was carried out. AAVwt or AAVsig were loaded onto heparin columns (immobilized on cross-linked 4% beaded agarose; Sigma) that had been prepacked and equilibrated according to the manufacturer's recommendations. Purified viral preparations (6.4×10^11 particles) in 200 μl were loaded, and the flow-through, wash, and 1 M NaCl eluates were collected and analyzed by dot-blot hybridization using twofold serial dilutions. For quantification of wtAAVegfp-mediated gene transfer to vascular EC, aliquots of cell extracts were analyzed in triplicate for eGFP expression using a Wallac Victor2 multi-counter with recombinant eGFP (Clontech, Basingstoke, Hants., UK) as a standard. All data were analyzed as eGFP relative light units (RFU)/mg protein. For analysis of AAVsig and AAVwtdriven lacZ expression, aliquots of cell extracts were analyzed for beta-galactosidase expression using Galacto-Light Plus (Tropix, Mass., U.S.A.) as per manufacturer's recommendations using recombinant beta-galactosidase (Sigma, UK) as a standard. All data were expressed as RLU/mg protein.

HEC [1] = details: peptide fused to an antibody against the Ad5 fiber knob; reference [47]; cited from earlier work
VSMC = test: Binding of homogenous candidate phage to cells; design: species or system human
Procedure: (§1) 10^7 pfu of homogenous phage populations containing candidate peptides were panned on human endothelial cells (HEC), vascular smooth muscle cells (VSMC) and HepG2 hepatocytes, binding from a control peptide-less phage, subtracted and recovery calculated and expressed as a percentage of HEC;
(§2) Phage libraries were amplified, purified and titered according to manufacturers protocols. HEC were plated into 6 well plates and cultured until 2 days post-confluence. 1×10^9 pfu of input phage library was used to pan confluent cultures of HEC (passage 2-4) in triplicate. First we used a direct screening approach and biopanned HEC for 4 rounds. Second we biopanned on HEC after biopanning for 1 hour on 2 successive cultures of VSMC, HepG2 and peripheral blood mononuclear cells (pre-clearing steps). Prior to biopanning growth media was changed to 1 ml DMEM containing 1% bovine serum albumin (BSA) and the plates were incubated at 4° C. for 15 minutes. For HEC, 1×10^9 pfu of pre-cleared or stock phage library was incubated with cells for 1 hour at 4° C. Cells were washed 5 times in ice-cold PBS/1% BSA for 5 minutes per wash. Weakly associated phage were eluted in 1 ml 0.2 M glycine (pH 2.2) for 10 minutes on ice, followed by neutralisation with 200 μl Tris-HCl (pH 8.0). High affinity phage (tightly-bound phage) were isolated by lysing the cells in 1 ml of 30 mM Tris-HCL/1 mM EDTA (pH 8.0) for 1 hour on ice. Cell debris was removed and the supernatant recovered. Phage were amplified and titered between each round to ensure that 10^9 pfu of input phage were used at the start of each successive round. Following completion of biopanning, E. coli ER2537 were infected with the resulting phage, plated and individual plaques picked, amplified, and sequenced. For further binding studies, high titer homogenous populations of each phage were prepared. Briefly, 1×10^7 pfu of each phage were biopanned on HEC, VSMC and HepG2 cells for 30 minutes at 4° C. […] The percentage recovery was calculated for each cell type using a peptide-less phage to allow for background binding.

HEC [2] = test: Binding of homogenous candidate phage to cells; design: species or system human; details: 10^7 pfu
Procedure: as §1, §2

HepG2 hepatocytes = test: Binding of homogenous candidate phage to cells; design: species or system human
Procedure: as §1, §2

Compound | effect of agent on wtAAVegfp reporter gene expression versus infection without treatment (HUVEC) | other results
CCCC[C@@H](C=O)NC(=O)[C@H](CC(C)C)NC(=O)[C@H](CC(C)C)NC(C)=O [LLnL] (Ac-Leu-Leu-[Nle]-aldehyde) | increase | 
C[C@@]1(CO)[C@H](O)CC[C@@]2(C)[C@H]1CC[C@H]1C[C@@H]3C[C@@]12CC[C@]3(O)CO [aphidicolin] | enhanced | 
COc1cc([C@@H]2c3cc4c(cc3[C@@H](O[C@@H]3O[C@@H]5CO[C@@H](C)O[C@H]5[C@H](O)[C@H]3O)[C@H]3COC(=O)[C@H]23)OCO4)cc(OC)c1O [etoposide] | enhanced | 
CC(C)C[C@@H](C=O)NC(=O)[C@H](CC(C)C)NC(=O)[C@H](CC(C)C)NC(=O)OCc1ccccc1 [mg132] (Cbz-Leu-Leu-Leu-aldehyde) | increase | 
SIGYPLP |  | adenoviral gene transfer into human EC versus non-targeted Ad (HEC [1]): 15 fold; binding to VSMC compared to HEC (VSMC): limited binding; also recorded: low-level affinity; binding to HEC (HEC [2]): high-level binding; binding to HepG2 hepatocytes compared to HEC (HepG2 hepatocytes): limited binding; also recorded: low-level affinity
